Test results from PMC3970082 (FEBS Open Bio, 2014).

Target: T1, 5-aminopentaneamide amide hydrolase (Pseudomonas sp. TPU-A5, UniProt W6JNP2)
T1 sequence (W6JNP2 1-504): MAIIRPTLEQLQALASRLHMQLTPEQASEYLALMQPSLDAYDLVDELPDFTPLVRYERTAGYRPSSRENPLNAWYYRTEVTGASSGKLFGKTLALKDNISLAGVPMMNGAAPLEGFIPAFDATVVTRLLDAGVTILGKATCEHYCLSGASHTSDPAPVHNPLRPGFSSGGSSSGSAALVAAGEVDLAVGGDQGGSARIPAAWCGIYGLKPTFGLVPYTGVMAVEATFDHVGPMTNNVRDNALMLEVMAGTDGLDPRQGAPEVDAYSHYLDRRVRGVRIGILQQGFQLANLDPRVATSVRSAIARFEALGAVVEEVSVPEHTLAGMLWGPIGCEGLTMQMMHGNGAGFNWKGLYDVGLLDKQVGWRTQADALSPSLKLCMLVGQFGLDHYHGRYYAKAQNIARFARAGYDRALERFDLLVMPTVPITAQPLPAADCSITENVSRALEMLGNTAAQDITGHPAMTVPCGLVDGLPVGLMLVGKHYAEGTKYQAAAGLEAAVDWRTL
Experiment: ammonia liberation
Assay type: biochemical
Settings: room temperature; purified fractions of native enzyme

CCCCC(N)=O [valeramide]
ammonia liberation (indophenol reaction): assayed at room temperature by measuring the ammonia liberated from valeramide degradation
